# Reference: patent US10683310B2, “Compound for specifically binding to amyloid β-protein” (NEUBORON MEDTECH LTD., priority 2015, dated 2020)
# Assays:
# [1] = stability in vitro of 11C-labeled compound determined by HPLC; format: physicochemical
# Experimental: The stability of IIC-labeled 6-borono-2-(4-methylaminophenyl)benzothiazole in vitro was determined by HPLC, at selected time of 30 min and 60 min. […] Therefore, the radioactive chemical purity of the IIC-labeled radioactive compound met the experimental requirements.
# [2] = test system: amyloid β-protein deposition plaques; test: Micro-PET scan of brain uptake in SAMP8 model mice and control mice; format: in vivo; conditions: for Cerebral cortex uptake of radiopharmaceuticals, Model mice / hippocampus uptake of radiopharmaceuticals, Model mice: SAMP8 model mice; for Cerebral cortex uptake of radiopharmaceuticals, Control mice / hippocampus uptake of radiopharmaceuticals, Control mice: normal control mice
# Experimental: SAMP8 (senescence accelerated mouse prone 8) mice are the most common animal model of AD (Alzheimer's disease), in its brain there are a large number of amyloid deposition plaque. In this example, SAMP8 mice were used as model mice, and the normal mice were used as the control mice. Both the model mice and the control mice were 10 months old. The two mice were injected with 6-borono-2-(4-methylaminophenyl)benzothiazole containing labeling, and the Micro-PET scan is used to study whether 6-borono-2-(4-methylaminophenyl)benzothiazole and amyloid β-protein have specific binding properties. Model mice and control mice weighing 31.5±0.3 g were selected, 31.0±0.6 μCi of ^11C labelled 6-borono-2-(4-methylaminophenyl)benzothiazole were injected thereto, and Micro-PET of Model INVEON from Siemens were used for scan, where the scanning window was 350-650 KeV.
# It is well known to those skilled in the art that the major cause of Alzheimer's disease is that the amyloid β-protein deposition plaques accumulate in the cerebral cortex and hippocampus of the brain. In this example, Micro-PET scanned and compared the brains of the model and control mice using PMOD software. And the absorption of radioactive 6-borono-2-(4-methylaminophenyl)benzothiazole in the cerebral cortex and hippocampus of SAMP8 model mice and control mice was determined, to further illustrate that the compound is capable of specifically binding to amyloid β-protein deposition plaques.
smiles,measurement,setting,value
CNc1ccc(-c2nc3ccc(B(O)O)cc3s2)cc1 [6-borono-2-(4-methylaminophenyl)benzothiazole],radioactive chemical purity (stability in vitro),[1]; 30 min,100%
same,radioactive chemical purity (stability in vitro),[1]; 60 min,100%
same,Cerebral cortex uptake Ratio (model mice/control mice),[2]; 5 min after injection,1.9
same,hippocampus uptake Ratio (model mice/control mice),[2]; 5 min after injection,1.9
same,Cerebral cortex uptake Ratio (model mice/control mice),[2]; 15 min after injection,1.9
same,hippocampus uptake Ratio (model mice/control mice),[2]; 15 min after injection,2.3
same,Cerebral cortex uptake Ratio (model mice/control mice),[2]; 25 min after injection,2.4
same,hippocampus uptake Ratio (model mice/control mice),[2]; 25 min after injection,3.2
same,Cerebral cortex uptake Ratio (model mice/control mice),[2]; 35 min after injection,2.7
same,hippocampus uptake Ratio (model mice/control mice),[2]; 35 min after injection,3.2
same,"Cerebral cortex uptake of radiopharmaceuticals, Model mice",[2]; 5 min after injection,3.03 % ID/g
same,"hippocampus uptake of radiopharmaceuticals, Model mice",[2]; 5 min after injection,3.44 % ID/g
same,"Cerebral cortex uptake of radiopharmaceuticals, Model mice",[2]; 15 min after injection,2.88 % ID/g
same,"hippocampus uptake of radiopharmaceuticals, Model mice",[2]; 15 min after injection,3.50 % ID/g
same,"Cerebral cortex uptake of radiopharmaceuticals, Model mice",[2]; 25 min after injection,2.79 % ID/g
same,"hippocampus uptake of radiopharmaceuticals, Model mice",[2]; 25 min after injection,3.45 % ID/g
same,"Cerebral cortex uptake of radiopharmaceuticals, Model mice",[2]; 35 min after injection,2.68 % ID/g
same,"hippocampus uptake of radiopharmaceuticals, Model mice",[2]; 35 min after injection,3.27 % ID/g
same,brain radiopharmaceutical absorption (PET image),"[2]; SAMP8 model mouse versus control mice, 30 min after injection, FIGS. 5A and 5B",accumulated a large amount of radiopharmaceuticals relative to the brain of the control mice
same,"Cerebral cortex uptake of radiopharmaceuticals, Control mice",[2]; 5 min after injection,1.61 % ID/g
same,"hippocampus uptake of radiopharmaceuticals, Control mice",[2]; 5 min after injection,1.80 % ID/g
same,"Cerebral cortex uptake of radiopharmaceuticals, Control mice",[2]; 15 min after injection,1.48 % ID/g
same,"hippocampus uptake of radiopharmaceuticals, Control mice",[2]; 15 min after injection,1.49 % ID/g
same,"Cerebral cortex uptake of radiopharmaceuticals, Control mice",[2]; 25 min after injection,1.17 % ID/g
same,"hippocampus uptake of radiopharmaceuticals, Control mice",[2]; 25 min after injection,1.09 % ID/g
same,"Cerebral cortex uptake of radiopharmaceuticals, Control mice",[2]; 35 min after injection,0.99 % ID/g
same,"hippocampus uptake of radiopharmaceuticals, Control mice",[2]; 35 min after injection,1.01 % ID/g
